# ChEMBL document CHEMBL4020788, “Synthesis, SAR and molecular docking studies of benzo[d]thiazole-hydrazones as potential antibacterial and antifungal agents” (2017)
# Test system: Fusarium verticillioides
# Test: Antifungal activity against Fusarium moniliforme at 75 ug/ml after 48 hrs by agar well diffusion method
# Assay type: functional
# Conditions: read-out: DIZ
row,Structure (SMILES),zone of inhibition at 75 µg/mL [mm]
1,Cc1cccc2nc(N/N=C/c3ccc(Br)cc3Br)sc12,32

# Test system: Bacillus subtilis
# Test: Antibacterial activity against Bacillus subtilis incubated for overnight by microdilution method
# Assay type: functional
# Conditions: not given
row,Structure (SMILES),MIC [µg/mL]
1,Cc1cccc2nc(N/N=C/c3ccc(Br)cc3Br)sc12,28

# Test system: Fusarium verticillioides
# Test: Antifungal activity against Fusarium moniliforme at 100 ug/ml after 48 hrs by agar well diffusion method
# Assay type: functional
# Conditions: read-out: DIZ
row,Structure (SMILES),zone of inhibition at 100 µg/mL [mm]
1,Cc1cccc2nc(N/N=C/c3ccc(Br)cc3Br)sc12,41

# Test system: Staphylococcus aureus
# Test: Antibacterial activity against Staphylococcus aureus at 50 ug/ml after 24 hrs by agar well diffusion method
# Assay type: functional
# Conditions: read-out: DIZ
row,Structure (SMILES),zone of inhibition at 50 µg/mL [mm]
1,Cc1cccc2nc(N/N=C/c3ccc(Br)cc3Br)sc12,15

# Test system: Klebsiella pneumoniae
# Test: Antibacterial activity against Klebsiella pneumoniae at 25 ug/ml after 24 hrs by agar well diffusion method
# Assay type: functional
# Conditions: read-out: DIZ
row,Structure (SMILES),zone of inhibition at 25 µg/mL [mm]
1,Cc1cccc2nc(N/N=C/c3ccc(Br)cc3Br)sc12,8

# Test system: Fusarium verticillioides
# Test: Antifungal activity against Fusarium moniliforme at 50 ug/ml after 48 hrs by agar well diffusion method
# Assay type: functional
# Conditions: read-out: DIZ
row,Structure (SMILES),zone of inhibition at 50 µg/mL [mm]
1,Cc1cccc2nc(N/N=C/c3ccc(Br)cc3Br)sc12,27

# Test system: Klebsiella pneumoniae
# Test: Antibacterial activity against Klebsiella pneumoniae at 100 ug/ml after 24 hrs by agar well diffusion method
# Assay type: functional
# Conditions: read-out: DIZ
row,Structure (SMILES),zone of inhibition at 100 µg/mL [mm]
1,Cc1cccc2nc(N/N=C/c3ccc(Br)cc3Br)sc12,20

# Test system: Klebsiella pneumoniae
# Test: Antibacterial activity against Klebsiella pneumoniae at 50 ug/ml after 24 hrs by agar well diffusion method
# Assay type: functional
# Conditions: read-out: DIZ
row,Structure (SMILES),zone of inhibition at 50 µg/mL [mm]
1,Cc1cccc2nc(N/N=C/c3ccc(Br)cc3Br)sc12,11

# Test system: Fusarium verticillioides
# Test: Antifungal activity against Fusarium moniliforme at 25 ug/ml after 48 hrs by agar well diffusion method
# Assay type: functional
# Conditions: read-out: DIZ
row,Structure (SMILES),zone of inhibition at 25 µg/mL [mm]
1,Cc1cccc2nc(N/N=C/c3ccc(Br)cc3Br)sc12,21

# Test system: Aspergillus niger
# Test: Antifungal activity against Aspergillus niger at 50 ug/ml after 48 hrs by agar well diffusion method
# Assay type: functional
# Conditions: read-out: DIZ
row,Structure (SMILES),zone of inhibition at 50 µg/mL [mm]
1,Cc1cccc2nc(N/N=C/c3ccc(Br)cc3Br)sc12,29

# Test system: Bacillus subtilis
# Test: Antibacterial activity against Bacillus subtilis at 100 ug/ml after 24 hrs by agar well diffusion method
# Assay type: functional
# Conditions: read-out: DIZ
row,Structure (SMILES),zone of inhibition at 100 µg/mL [mm]
1,Cc1cccc2nc(N/N=C/c3ccc(Br)cc3Br)sc12,27

# Test system: Aspergillus niger
# Test: Antifungal activity against Aspergillus niger at 75 ug/ml after 48 hrs by agar well diffusion method
# Assay type: functional
# Conditions: read-out: DIZ
row,Structure (SMILES),zone of inhibition at 75 µg/mL [mm]
1,Cc1cccc2nc(N/N=C/c3ccc(Br)cc3Br)sc12,36

# Test system: Bacillus subtilis
# Test: Antibacterial activity against Bacillus subtilis at 75 ug/ml after 24 hrs by agar well diffusion method
# Assay type: functional
# Conditions: read-out: DIZ
row,Structure (SMILES),zone of inhibition at 75 µg/mL [mm]
1,Cc1cccc2nc(N/N=C/c3ccc(Br)cc3Br)sc12,24

# Test system: Fusarium oxysporum
# Test: Antifungal activity against Fusarium oxysporum at 75 ug/ml after 48 hrs by agar well diffusion method
# Assay type: functional
# Conditions: read-out: DIZ
row,Structure (SMILES),zone of inhibition at 75 µg/mL [mm]
1,Cc1cccc2nc(N/N=C/c3ccc(Br)cc3Br)sc12,30

# Test system: Fusarium verticillioides
# Test: Antifungal activity against Fusarium moniliforme after 48 to 72 hrs by microdilution method
# Assay type: functional
# Conditions: not given
row,Structure (SMILES),MIC [µg/mL]
1,Cc1cccc2nc(N/N=C/c3ccc(Br)cc3Br)sc12,18

# Test system: Aspergillus niger
# Test: Antifungal activity against Aspergillus niger at 100 ug/ml after 48 hrs by agar well diffusion method
# Assay type: functional
# Conditions: read-out: DIZ
row,Structure (SMILES),zone of inhibition at 100 µg/mL [mm]
1,Cc1cccc2nc(N/N=C/c3ccc(Br)cc3Br)sc12,40

# Test system: Bacillus subtilis
# Test: Antibacterial activity against Bacillus subtilis at 25 ug/ml after 24 hrs by agar well diffusion method
# Assay type: functional
# Conditions: read-out: DIZ
row,Structure (SMILES),zone of inhibition at 25 µg/mL [mm]
1,Cc1cccc2nc(N/N=C/c3ccc(Br)cc3Br)sc12,13

# Test system: Escherichia coli
# Test: Antibacterial activity against Escherichia coli at 25 ug/ml after 24 hrs by agar well diffusion method
# Assay type: functional
# Conditions: read-out: DIZ
row,Structure (SMILES),zone of inhibition at 25 µg/mL [mm]
1,Cc1cccc2nc(N/N=C/c3ccc(Br)cc3Br)sc12,5

# Test system: Fusarium oxysporum
# Test: Antifungal activity against Fusarium oxysporum at 25 ug/ml after 48 hrs by agar well diffusion method
# Assay type: functional
# Conditions: read-out: DIZ
row,Structure (SMILES),zone of inhibition at 25 µg/mL [mm]
1,Cc1cccc2nc(N/N=C/c3ccc(Br)cc3Br)sc12,16

# Test system: Aspergillus niger
# Test: Antifungal activity against Aspergillus niger at 25 ug/ml after 48 hrs by agar well diffusion method
# Assay type: functional
# Conditions: read-out: DIZ
row,Structure (SMILES),zone of inhibition at 25 µg/mL [mm]
1,Cc1cccc2nc(N/N=C/c3ccc(Br)cc3Br)sc12,24

# Test system: Staphylococcus aureus
# Test: Antibacterial activity against Staphylococcus aureus at 100 ug/ml after 24 hrs by agar well diffusion method
# Assay type: functional
# Conditions: read-out: DIZ
row,Structure (SMILES),zone of inhibition at 100 µg/mL [mm]
1,Cc1cccc2nc(N/N=C/c3ccc(Br)cc3Br)sc12,21

# Test system: Escherichia coli
# Test: Antibacterial activity against Escherichia coli at 75 ug/ml after 24 hrs by agar well diffusion method
# Assay type: functional
# Conditions: read-out: DIZ
row,Structure (SMILES),zone of inhibition at 75 µg/mL [mm]
1,Cc1cccc2nc(N/N=C/c3ccc(Br)cc3Br)sc12,12

# Test system: Staphylococcus aureus
# Test: Antibacterial activity against methicillin resistant Staphylococcus aureus MRSA090 at 25 ug/ml after 24 hrs by agar well diffusion method
# Assay type: functional
# Conditions: MRSA090, 24 h, read-out: DIZ
row,Structure (SMILES),zone of inhibition at 25 µg/mL [mm]
1,Cc1cccc2nc(N/N=C/c3ccc(Br)cc3Br)sc12,8

# Test system: Staphylococcus aureus
# Test: Antibacterial activity against methicillin resistant Staphylococcus aureus MRSA090 at 75 ug/ml after 24 hrs by agar well diffusion method
# Assay type: functional
# Conditions: MRSA090, 24 h, read-out: DIZ
row,Structure (SMILES),zone of inhibition at 75 µg/mL [mm]
1,Cc1cccc2nc(N/N=C/c3ccc(Br)cc3Br)sc12,15

# Test system: Fusarium oxysporum
# Test: Antifungal activity against Fusarium oxysporum after 48 to 72 hrs by microdilution method
# Assay type: functional
# Conditions: not given
row,Structure (SMILES),MIC [µg/mL]
1,Cc1cccc2nc(N/N=C/c3ccc(Br)cc3Br)sc12,16

# Test system: Staphylococcus aureus
# Test: Antibacterial activity against methicillin resistant Staphylococcus aureus MRSA090 at 100 ug/ml after 24 hrs by agar well diffusion method
# Assay type: functional
# Conditions: MRSA090, 24 h, read-out: DIZ
row,Structure (SMILES),zone of inhibition at 100 µg/mL [mm]
1,Cc1cccc2nc(N/N=C/c3ccc(Br)cc3Br)sc12,17

# Test system: Staphylococcus aureus
# Test: Antibacterial activity against Staphylococcus aureus at 75 ug/ml after 24 hrs by agar well diffusion method
# Assay type: functional
# Conditions: read-out: DIZ
row,Structure (SMILES),zone of inhibition at 75 µg/mL [mm]
1,Cc1cccc2nc(N/N=C/c3ccc(Br)cc3Br)sc12,18

# Test system: Staphylococcus aureus
# Test: Antibacterial activity against methicillin resistant Staphylococcus aureus MRSA090 at 50 ug/ml after 24 hrs by agar well diffusion method
# Assay type: functional
# Conditions: MRSA090, 24 h, read-out: DIZ
row,Structure (SMILES),zone of inhibition at 50 µg/mL [mm]
1,Cc1cccc2nc(N/N=C/c3ccc(Br)cc3Br)sc12,12

# Test system: Klebsiella pneumoniae
# Test: Antibacterial activity against Klebsiella pneumoniae incubated for overnight by microdilution method
# Assay type: functional
# Conditions: not given
row,Structure (SMILES),MIC [µg/mL]
1,Cc1cccc2nc(N/N=C/c3ccc(Br)cc3Br)sc12,20

# Test system: Bacillus subtilis
# Test: Antibacterial activity against Bacillus subtilis at 50 ug/ml after 24 hrs by agar well diffusion method
# Assay type: functional
# Conditions: read-out: DIZ
row,Structure (SMILES),zone of inhibition at 50 µg/mL [mm]
1,Cc1cccc2nc(N/N=C/c3ccc(Br)cc3Br)sc12,17

# Test system: Staphylococcus aureus
# Test: Antibacterial activity against Staphylococcus aureus at 25 ug/ml after 24 hrs by agar well diffusion method
# Assay type: functional
# Conditions: read-out: DIZ
row,Structure (SMILES),zone of inhibition at 25 µg/mL [mm]
1,Cc1cccc2nc(N/N=C/c3ccc(Br)cc3Br)sc12,11

# Test system: Fusarium oxysporum
# Test: Antifungal activity against Fusarium oxysporum at 50 ug/ml after 48 hrs by agar well diffusion method
# Assay type: functional
# Conditions: read-out: DIZ
row,Structure (SMILES),zone of inhibition at 50 µg/mL [mm]
1,Cc1cccc2nc(N/N=C/c3ccc(Br)cc3Br)sc12,24

# Test system: Aspergillus niger
# Test: Antifungal activity against Aspergillus niger after 48 to 72 hrs by microdilution method
# Assay type: functional
# Conditions: not given
row,Structure (SMILES),MIC [µg/mL]
1,Cc1cccc2nc(N/N=C/c3ccc(Br)cc3Br)sc12,20

# Test system: Klebsiella pneumoniae
# Test: Antibacterial activity against Klebsiella pneumoniae at 75 ug/ml after 24 hrs by agar well diffusion method
# Assay type: functional
# Conditions: read-out: DIZ
row,Structure (SMILES),zone of inhibition at 75 µg/mL [mm]
1,Cc1cccc2nc(N/N=C/c3ccc(Br)cc3Br)sc12,15

# Test system: Escherichia coli
# Test: Antibacterial activity against Escherichia coli incubated for overnight by microdilution method
# Assay type: functional
# Conditions: not given
row,Structure (SMILES),MIC [µg/mL]
1,Cc1cccc2nc(N/N=C/c3ccc(Br)cc3Br)sc12,24

# Test system: Escherichia coli
# Test: Antibacterial activity against Escherichia coli at 50 ug/ml after 24 hrs by agar well diffusion method
# Assay type: functional
# Conditions: read-out: DIZ
row,Structure (SMILES),zone of inhibition at 50 µg/mL [mm]
1,Cc1cccc2nc(N/N=C/c3ccc(Br)cc3Br)sc12,8

# Test system: Staphylococcus aureus
# Test: Antibacterial activity against Staphylococcus aureus incubated for overnight by microdilution method
# Assay type: functional
# Conditions: not given
row,Structure (SMILES),MIC [µg/mL]
1,Cc1cccc2nc(N/N=C/c3ccc(Br)cc3Br)sc12,28

# Test system: Fusarium oxysporum
# Test: Antifungal activity against Fusarium oxysporum at 100 ug/ml after 48 hrs by agar well diffusion method
# Assay type: functional
# Conditions: read-out: DIZ
row,Structure (SMILES),zone of inhibition at 100 µg/mL [mm]
1,Cc1cccc2nc(N/N=C/c3ccc(Br)cc3Br)sc12,38

# Test system: Escherichia coli
# Test: Antibacterial activity against Escherichia coli at 100 ug/ml after 24 hrs by agar well diffusion method
# Assay type: functional
# Conditions: read-out: DIZ
row,Structure (SMILES),zone of inhibition at 100 µg/mL [mm]
1,Cc1cccc2nc(N/N=C/c3ccc(Br)cc3Br)sc12,16
